pIC50: −log10 of the molar value. Where only a bound is given, the exact number is not on record here.

The nature of data set [1]: Cytotoxicity against human MT4 cells assessed as reduction in cell viability by CellTiter-Glo luminescence analysis. In kind it is toxicity, cell-based.
Data set [2] relates to Human immunodeficiency virus 1. The experiment in a line: Antiviral activity against HIV-1 NL4-3 infected in human MT4 cells assessed as inhibition of viral replication by Nano-Glo luciferase assay. The conditions noted are these: Human immunodeficiency virus 1, NL4-3, MT4. In kind it is functional, organism-based.
Data set [3] can be described thus: Selectivity index, ratio of CC50 for human MT4 cells to IC50 for antiviral activity against HIV-1 NL4-3 infected in human MT4 cells. In kind it is toxicity, cell-based. The following applies: read-out: Ratio CC50/IC50.

Take `C=C(C)[C@]12C[C@@H](COC(=O)c3ccccc3)[C@@]34OC5(O[C@@H]1[C@@H]3[C@@H]1O[C@]1(CO)[C@@H](O)[C@@]1(O)[C@H]4[C@H]([C@H](C)[C@@H]1OC(=O)c1ccccc1)[C@H](C)CCCCCC[C@H]5O)O2`: in data set [1], the CC50 is greater than 5 nM. The pIC50 in data set [2] was 10.15.

As for `CCCCCCCC(=O)O[C@@]12[C@H](OC(=O)c3ccccc3)[C@@H](C)[C@@]3(O)[C@H]([C@@H]1C2(C)C)[C@@H](OO)C(CO)=C[C@]1(O)C(=O)C(C)=C[C@@H]31`, the selectivity ratio in data set [3] was less than 5.

On to `CCCCCCCC(=O)O[C@@]12[C@H](OC(=O)c3ccccc3)[C@@H](C)[C@@]3(O)[C@H]([C@@H]1C2(C)C)[C@@H](O)C(CO)=C[C@]1(O)C(=O)C(C)=C[C@@H]31`, for which, in data set [1], the 50% cytotoxic concentration (CC50) is greater than 41 nM. The pIC50 in data set [2] is less than 7.39.

For the compound `CCCCCCCC(=O)O[C@@]12[C@H](OC(=O)c3ccccc3)[C@@H](C)[C@]3(O)[C@@H]4C=C(C)C(=O)[C@@]4(O)[C@H](O)C(CO)=C[C@H]3[C@@H]1C2(C)C`, in data set [1], the CC50 was greater than 41 nM.

`CCCCCCCC(=O)O[C@@]12[C@H](OC(=O)c3ccccc3)[C@@H](C)[C@@]3(O)C(=C[C@](O)(CO)C[C@]4(O)C(=O)C(C)=C[C@@H]34)[C@@H]1C2(C)C`: in data set [1], the CC50 was greater than 41 nM. The pIC50 in data set [2] was less than 7.39.

On to `CCCCCCCC(=O)O[C@@]12C[C@@H](C)[C@@]3(O)[C@@H](C(=O)C(CO)=C[C@]4(O)C(=O)C(C)=C[C@@H]34)[C@@H]1C2(C)C`, for which, in data set [1], the CC50 is greater than 41 nM. For the same compound, in data set [2], the pIC50 was less than 7.39.

For the compound `CCCCCCCC(=O)O[C@@]12C[C@@H](C)[C@@]3(O)[C@H]([C@@H]1C2(C)C)[C@@H](OO)C(CO)=C[C@]1(O)C(=O)C(C)=C[C@@H]31`, the CC50 in data set [1] is greater than 41 nM. In addition, the pIC50 in data set [2] was less than 7.39.

`CCCCCCCC(=O)O[C@@]12[C@H](OC(=O)c3ccccc3)[C@@H](C)[C@@]3(O)[C@@H](C=C(CO)C[C@]4(O)C(=O)C(C)=C[C@@H]34)[C@@H]1C2(C)C`: in data set [1], the CC50 is greater than 41 nM. Further, the pIC50 in data set [2] was 9.74.

`CCCCCCCC(=O)O[C@@]12[C@H](OC(=O)c3ccccc3)[C@@H](C)[C@@]3(O)[C@@H](C(=O)C(CO)=C[C@]4(O)C(=O)C(C)=C[C@@H]34)[C@@H]1C2(C)C`: in data set [1], the CC50 was greater than 41 nM.

For the origin of these results see ChEMBL document CHEMBL5120745, “LC-MS Identification, Isolation, and Structural Elucidation of Anti-HIV Tigliane Diterpenoids from Wikstroemia lamatsoensis” (J Nat Prod, 2021).
